According to patent US20260234124A1, “Substituted Pyrazolyl-Pyridinyl Compounds as Ligand Directed Degraders of IRAK3” (Celgene Corporation, priority 2022, published 2026):

Tests used:
IRAK3 [1] = biological target: T1, IRAK3 (Homo sapiens, UniProt Q9Y616); assay: IRAK3 biochemical binding assay (LanthaScreen Eu Kinase Binding, TR-FRET); settings: 10 nM tracer, 10 nM IRAK3, 1 hour at room temperature
T1 sequence (Q9Y616 1-596): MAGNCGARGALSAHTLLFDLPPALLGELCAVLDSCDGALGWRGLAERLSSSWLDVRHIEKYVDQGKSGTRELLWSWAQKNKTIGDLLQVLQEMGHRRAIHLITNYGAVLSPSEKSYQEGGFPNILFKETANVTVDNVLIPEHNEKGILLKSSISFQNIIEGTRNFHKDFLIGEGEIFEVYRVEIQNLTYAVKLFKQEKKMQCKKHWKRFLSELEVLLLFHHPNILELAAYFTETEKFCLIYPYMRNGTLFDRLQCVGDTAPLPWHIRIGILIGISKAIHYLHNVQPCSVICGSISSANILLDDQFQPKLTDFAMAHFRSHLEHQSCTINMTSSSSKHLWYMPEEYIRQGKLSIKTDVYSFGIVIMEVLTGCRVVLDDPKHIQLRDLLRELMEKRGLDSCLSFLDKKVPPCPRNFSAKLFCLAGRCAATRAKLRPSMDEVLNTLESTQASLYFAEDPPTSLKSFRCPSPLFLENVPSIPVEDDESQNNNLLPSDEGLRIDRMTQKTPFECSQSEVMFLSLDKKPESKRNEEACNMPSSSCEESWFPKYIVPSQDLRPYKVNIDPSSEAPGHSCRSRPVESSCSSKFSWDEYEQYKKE
Experimental: Example B3. IRAK3 Biochemical Binding Assay
The LanthaScreen® Eu Kinase Binding assay was performed as described by the vendor (ThermoFisher Scientific Waltham, MA). Briefly, 100× solutions of compound were prepared in DMSO via serial dilution of the 10 mM stock solution in a 384-well reagent plate using 3-fold intervals to achieve final concentrations. 1 μL of the compound dilution series were added to the corresponding wells of a 384-well reagent plate containing 32.3 μL of 1× buffer (50 mM HEPES pH 7.4, […], 1 mM EGTA, 0.01% Brij-35). 5 μL of the buffer diluted compounds were transferred to the corresponding wells of a 384-well assay plate. 5 μL of 3× tracer was transferred to each well of the assay plate for a final tracer concentration of 10 nM. Finally, 5 μL of the 3× Eu-Anti-GST and IRAK3 mix was transferred to each well for a final concentration of 2 nM and 10 nM, respectively. Reactions were allowed to incubate for 1 hour at room temperature. TR-FRET signal of the interaction ([…]/λem 665/λem 615) was read at room temperature with a delay time of 100 μs and an integration time of 200 μs using an Envision plate reader. Background corrected emission signal ratios at each compound concentration were used to calculate percentage of inhibition (% o Inhibition). Plots of % Inhibition versus inhibitor concentrations were fit according to a dose-response equation (Eq. 1) to generate IC50 and Hill slope values using Dotmatics software (Dotmatics, Bishops Storford, Hertfordshire, England).
(§1) Using these assays, IC50, Dmax, EC50, and DC50 values of the following compounds were determined. Dmax is defined as the maximum percent degradation achieved and DC50 is the concentration at which 50% degradation is achieved.

IRAK3 [2] = biological target: T1, IRAK3; assay: IRAK endogenous HTRF degradation assay (Total-IRAK3 HTRF kit); type: cell-based; parameters: IRAK Endogenous HTRF Degradation Assay; endogenous in cells; settings: endogenous IRAK3, overnight incubation; % Dmax = 100 − Ymin
Experimental: Example B2. IRAK Endogenous HTRF Degradation Assay
Cells (~50k) were plated in Cisbio 96-well low volume white plates (Cisbio: cat #66PL96005). Compounds were dissolved in DMSO and a 3-fold serial dilution was performed using a TECAN D300E. Cells were incubated with the compound overnight. Total-IRAK3 HTRF kit from Cisbio was used for degradation analysis (Cisbio: 63ADK101PEH). Cryptate and D2 antibodies were diluted in Detection buffer as per manufacturers recommendation. Then 2 μL of each solution was added to 16 μL lysate. Buffer control (lysis buffer detection buffer), Cryptate control (lysis buffer+cryptate antibody+detection buffer), and Negative control (lysis buffer+cryptate antibody+D2 antibody) were made as per manufacturers recommendation. Post incubation with antibodies the HTRF signal was measured using a Perkin Elmer Envision reader and the HTRF signal was calculated using formula: (Emission at 665 nm/Emission at 615 nm)*10,000. All HTRF values were normalized to the average value of DMSO. The average value of the DMSO control wells were set to equal 100% of the relative IRAK3 protein levels. Normalized luminescence values were plotted on a graph as a function of compound concentration. Compound concentration was plotted on the x-axis and the corresponding normalized IRAK3 protein levels on the y-axis. The EC50 value (the half-maximum effective concentration) of a compound for the degradation of the IRAK3 was calculated using a four-parameter logistic model (sigmoidal dose-response model) (FIT=(A+{(B−A)/1+[(C/x)D]})) where C is the inflection point (EC50), D is the […], and A and B are the low and high limits of the fit, respectively). The Ymin was calculated by determining the lowest percentage of target protein remaining following compound treatment. Dmax was calculated from Ymin (% Dmax=100−Ymin).
as §1

| Structure (SMILES) | IC50 (IRAK3 [1]) | Dmax (IRAK3 [2]) |
| --- | --- | --- |
| Cc1ncsc1-c1ccc(CNC(=O)[C@@H]2C[C@@H](O)CN2C(=O)[C@@H](NC(=O)COCCOCCOCCOCCN2CCC(n3cc(-c4cnc(N)c(O[C@H](C)c5c(Cl)ccc(F)c5Cl)c4)cn3)CC2)C(C)(C)C)cc1 [Compound 4, (2S,4R)-1-((S)-17-(4-(4-(6-amino-5-((R)-1-(2,6-dichloro-3-fluorophenyl)ethoxy)pyridin-3-yl)-1H-pyrazol-1-yl)piperidin-1-yl)-2-(tert-butyl)-4-oxo-6,9,12,15-tetraoxa-3-azaheptadecanoyl)-4-hydroxy-N-(4-(4-methylthiazol-5-yl)benzyl)pyrrolidine-2-carboxamide] | 120 nM | 21% |
| C[C@@H](Oc1cc(-c2cnn(C3CCN(CCOCCOCCNC(=O)COc4cccc5c4C(=O)N(C4CCC(=O)NC4=O)C5=O)CC3)c2)cnc1N)c1c(Cl)ccc(F)c1Cl (stereo partly drawn) [Compound 10, N-(2-(2-(2-(4-(4-(6-amino-5-((R)-1-(2,6-dichloro-3-fluorophenyl)ethoxy)pyridin-3-yl)-1H-pyrazol-1-yl)piperidin-1-yl)ethoxy)ethoxy)ethyl)-2-((2-(2,6-dioxopiperidin-3-yl)-1,3-dioxoisoindolin-4-yl)oxy)acetamide] | 27 nM | 37% |
| Cc1ncsc1-c1ccc(CNC(=O)[C@@H]2C[C@@H](O)CN2C(=O)[C@@H](NC(=O)COCCOCCOCCN2CCC(n3cc(-c4cnc(N)c(O[C@H](C)c5c(Cl)ccc(F)c5Cl)c4)cn3)CC2)C(C)(C)C)cc1 [Compound 3, (2S,4R)-1-((S)-14-(4-(4-(6-amino-5-((R)-1-(2,6-dichloro-3-fluorophenyl)ethoxy)pyridin-3-yl)-1H-pyrazol-1-yl)piperidin-1-yl)-2-(tert-butyl)-4-oxo-6,9,12-trioxa-3-azatetradecanoyl)-4-hydroxy-N-(4-(4-methylthiazol-5-yl)benzyl)pyrrolidine-2-carboxamide] | 186 nM | 42% |
| C[C@@H](Oc1cc(-c2cnn(C3CCN(C4CCC5(CC4)CCN(C(=O)c4ccc6c(c4)C(=O)N(C4CCC(=O)NC4=O)C6)CC5)CC3)c2)cnc1N)c1c(Cl)ccc(F)c1Cl (stereo partly drawn) [Compound 19, 3-(6-(9-(4-(4-(6-amino-5-((R)-1-(2,6-dichloro-3-fluorophenyl)ethoxy)pyridin-3-yl)-1H-pyrazol-1-yl)piperidin-1-yl)-3-azaspiro[5.5]undecane-3-carbonyl)-1-oxoisoindolin-2-yl)piperidine-2,6-dione] | 4 nM | 42% |
| Cc1ncsc1-c1ccc(CNC(=O)[C@@H]2C[C@@H](O)CN2C(=O)[C@@H](NC(=O)COCCOCCOCCOCCOCCOCCOCCN2CCC(n3cc(-c4cnc(N)c(O[C@H](C)c5c(Cl)ccc(F)c5Cl)c4)cn3)CC2)C(C)(C)C)cc1 [Compound 7, (2S,4R)-1-((S)-26-(4-(4-(6-amino-5-((R)-1-(2,6-dichloro-3-fluorophenyl)ethoxy)pyridin-3-yl)-1H-pyrazol-1-yl)piperidin-1-yl)-2-(tert-butyl)-4-oxo-6,9,12,15,18,21,24-heptaoxa-3-azahexacosanoyl)-4-hydroxy-N-(4-(4-methylthiazol-5-yl)benzyl)pyrrolidine-2-carboxamide] | 331 nM | 50% |
| C[C@@H](Oc1cc(-c2cnn(C3CCN(C4CCC5(CC4)CCN(C(=O)c4cccc6c4CN(C4CCC(=O)NC4=O)C6=O)CC5)CC3)c2)cnc1N)c1c(Cl)ccc(F)c1Cl (stereo partly drawn) [Compound 21, 3-(4-(9-(4-(4-(6-amino-5-((R)-1-(2,6-dichloro-3-fluorophenyl)ethoxy)pyridin-3-yl)-1H-pyrazol-1-yl)piperidin-1-yl)-3-azaspiro[5.5]undecane-3-carbonyl)-1-oxoisoindolin-2-yl)piperidine-2,6-dione] | 2 nM | 68% |
